# Where two headings read alike, the source gives them in different places. Ends that are not written are not given here.
# Legend:
# Assay type in all cases: cell-based
# [1] = tested on: tumor cells derived from non-human mammals; assay: Antitumor activity on tumor cells derived from non-human mammals (data not shown); conditions: detailed data not shown
# in vitro = conditions: human
# Procedure: Currently commercially available human gastric cancer cell lines (FU97), human alveolar basal epithelial adenocarcinoma cell lines (A549), human breast cancer cell lines (MDA-MB-231), and human melanoma cell lines (A375) were prepared as test tumor cells. In addition, normal human mammary epithelial cell culture lines (MCF-12F) were prepared for comparison. A DMEM/F12 culture medium including 20 ng/mL of recombinant EGF, 10 μg/mL of insulin, 0.5 μg/mL of hydrocortisone, and 10% FBS (product, commercially available from Wako Pure Chemical Industries, Ltd.). The above five types of cell lines were cultured in respective designated culture solutions. The cell lines were cultured so that the number of cells per well in a 96-hole (well) plate was about 5×10^3. Here, an amount of the culture solution per well was 100 μL. The 96-well plate was then placed in a CO2 incubator. Then, pre-incubation was performed under conditions of 37° C. and 5% CO2 for about 1 day (about 23 hours). Then, regarding the culture solution for the peptide addition area, culture solutions containing Sample 1 for each concentration were prepared so that the concentration of Sample 1 was 6.25 μM, 12.5 μM or 25 μM and supplied to wells (that is, wells after the pre-incubation) in which 90 μL of cells to be evaluated were cultured in each well. On the other hand, regarding the culture solution for the comparative test area, a culture solution to which no Sample 1 was added was prepared, and supplied to wells (that is, wells after the pre-incubation) in which 90 μL of cells to be evaluated were cultured in each well. The 96-well plate was then placed in a CO2 incubator, and incubated under conditions of 37° C. and 5% CO2 for 48 hours. […] Then, the absorbance at a wavelength of 450 nm (value corrected by the absorbance at a wavelength of 620 nm: A450-A620) was measured based on the reduction of the tetrazolium salt in the culture solution. Then, the cell viability was calculated according to a colorimetric method. […]
# [2] = tested on: human gastric cancer cell lines (FU97); conditions: for Cell viability (%) of test cells: human, 48 h
# Procedure: The antitumor activity of Sample 1 synthesized in the above Test Example 1 with respect to human-derived cultured tumor cells was evaluated. Currently commercially available human gastric cancer cell lines (FU97), human alveolar basal epithelial adenocarcinoma cell lines (A549), human breast cancer cell lines (MDA-MB-231), and human melanoma cell lines (A375) were prepared as test tumor cells. In addition, normal human mammary epithelial cell culture lines (MCF-12F) were prepared for comparison. A DMEM culture medium including 10 μg/mL of insulin, 50 unit/mL of penicillin, 50 μg/mL of streptomycin, and 10% fetal bovine serum (FBS) (product, commercially available from Wako Pure Chemical Industries, Ltd.) The above five types of cell lines were cultured in respective designated culture solutions. The cell lines were cultured so that the number of cells per well in a 96-hole (well) plate was about 5×10^3. Here, an amount of the culture solution per well was 100 μL. The 96-well plate was then placed in a CO2 incubator. Then, pre-incubation was performed under conditions of 37° C. and 5% CO2 for about 1 day (about 23 hours). Then, regarding the culture solution for the peptide addition area, culture solutions containing Sample 1 for each concentration were prepared so that the concentration of Sample 1 was 6.25 μM, 12.5 μM or 25 μM and supplied to wells (that is, wells after the pre-incubation) in which 90 μL of cells to be evaluated were cultured in each well. On the other hand, regarding the culture solution for the comparative test area, a culture solution to which no Sample 1 was added was prepared, and supplied to wells (that is, wells after the pre-incubation) in which 90 μL of cells to be evaluated were cultured in each well. The 96-well plate was then placed in a CO2 incubator, and incubated under conditions of 37° C. and 5% CO2 for 48 hours. […] Then, the absorbance at a wavelength of 450 nm (value corrected by the absorbance at a wavelength of 620 nm: A450-A620) was measured based on the reduction of the tetrazolium salt in the culture solution. Then, the cell viability was calculated according to a colorimetric method. In the test areas (test areas 1 to 3) in the peptide addition area, the cell viability of each of the above five types of cell lines was calculated as a relative value when a measured value (measurement absorbance) of the comparative test area in the same cell lines was set as 100%. That is, regarding each of the above five types of cell lines, the cell viability (%) was calculated by dividing the measurement absorbance of the test areas (test areas 1 to 3) in the peptide addition area by the measurement absorbance of the comparative test area in the same cell lines and multiplying by 100.
substance,measurement,setting,value
MACLGFQRHKAQLNLATRTWPCTLLFFLLFIPVFCKKRTLRKTDRKKR-NH2 (cysteines drawn unpaired) [Sample 1],antitumor activity and tumor cell-selective antitumor activity,[1],high antitumor activity and tumor cell-selective antitumor activity
same,"viability at 48 h, 6.25 μM",in vitro,130%
same,"viability at 48 h, 12.5 μM",in vitro,114%
same,"viability at 48 h, 25 μM",in vitro,82%
same,Specific cell viability of test tumor cells,"[2]; FU97, 12.5 μM Sample 1, (cell viability of test tumor cells)/(cell viability of MCF-12F cells)×100",23.0
same,Cell viability (%) of test cells,[2]; 6.25 μM,29.4%
same,Cell viability (%) of test cells,[2]; 12.5 μM,26.3%
same,Cell viability (%) of test cells,[2]; 25 μM,30%

# — patent publication US11472845B2, “Antitumor peptide and use thereof” (TOAGOSEI CO., LTD., priority 2019, dated 2022)
